Reference: patent publication US4188380A, “Surface active quaternary higher dialkyl phosphonium salt biocides and intermediates” (Exxon Research & Engineering Co., priority 1976, dated 1980)
Read-outs that look alike come from different tables or passages of the source. Values belong to the molecule of their own block, whether it stands above or below them.

Legend:
[1] = Surface tension of water solutions towards air, ASTM D-971; type: physicochemical; settings: 25°
Procedure: (§1) To obtain standard data for estimating the surface activity of quaternary higher dialkyl phosphonium salts, the surface tensions of their water solutions and the interfacial tensions of their equilibriated solutions in water and a paraffinic hydrocarbon were determined as described by ASTM D-971-50.
(§2) Didodecyl dimethyl phosphonium chloride and, for comparison, octadecyl trimethyl phosphonium chloride were tested as described above, according to ASTM D-971. The surface tension towards air measurement used distilled water at 25°, which gives a base value of 72 dynes per cm. For interfacial tension measurements a water-paraffin (Nujol) system was used. Without any added surfactant, this has an interfacial tension of 52 dynes per cm. The interfacial tension measurements of the phosphonium chloride solutions were made after equal volumes of the two immiscible solvent and the given amount of salt were slowly stirred for 30 minutes to arrive at equilibrium concentrations of the salt.

[2] = Interfacial tension in water-paraffin (Nujol) system, ASTM D-971; type: physicochemical; settings: 25°
Procedure: as §1, §2

[3] = system: Aspergillus niger; test: Broth dilution minimum inhibitory concentration, Aspergillus niger; type: cell-based; settings: for MIC: Aspergillus niger, read-out: Minimum Inhibitory Concentration, Aspergillus niger
Procedure: (§3) In the primary biocidal testing of the quaternary higher dialkyl phosphonium salts, broth dilution was used as the primary method to determine the minimum salt concentrations necessary for a complete inhibition of bacterial, fungal and algal growth. Typically, 2 ml per tube of trypticase soy broth was used as nutrient medium. Usually 10 mg of the phosphonium chloride was dissolved in 5 ml ethanol and this was then diluted to 10 ml with water to give an aqueous ethanol stock solution of […] concentration. The inoculum of the microorganism was one drop of a thousandfold diluted 24 hour culture which usually contained 1000 bacteria or 10,000 fungal or algal cells. To the inoculated broth media, different amounts of the experimental chemicals were administered. The media were then observed for visible growth after a period dependent on the type of the microorganism used. Bacterial growth or inhibition was observed after one or two days. Growths of fungi and algae were checked after 7 or 14 days. Observing a series of dilutions of the experimental chemical, minimum growth inhibitory, i.e., microbiostatic, concentrations (MIC) were determined.
(§4) A number of quaternary phosphonium chlorides characterized in Table I were broth dilution tested against an important gram negative bacterial organism, Pseudomonas aeruginosa; a common gram positive bacterium, Staphylococcus aureus, and a widespread fungus, Aspergillus niger, and a common algal organism, Chlorella vulgaris.

[4] = system: Pseudomonas aeruginosa; test: Broth dilution minimum inhibitory concentration, Pseudomonas aeruginosa; type: cell-based; settings: for MIC: Pseudomonas aeruginosa, read-out: Minimum Inhibitory Concentration, Pseudomonas aeruginosa
Procedure: as §3, §4

[5] = system: Chlorella vulgaris; test: Broth dilution minimum inhibitory concentration, Chlorella vulgaris; type: cell-based; settings: read-out: Minimum Inhibitory Concentration, Chlorella vulgaris
Procedure: as §3, §4

[6] = system: Staphylococcus aureus; test: Broth dilution minimum inhibitory concentration, Staphylococcus aureus; type: cell-based; settings: read-out: Minimum Inhibitory Concentration, Staphylococcus aureus
Procedure: as §3, §4

[7] = system: E. coli; test: AOAC Germicidal and Sanitizer Test, E. coli; type: cell-based; settings: Escherichia coli
From the text: (§5) To determine the effectiveness of a quaternary higher dialkyl phosphonium salt, i.e. didecyl dimethyl phosphonium chloride as a bactericide, the AOAC Germicidal and Sanitizer Test was used.

[8] = system: Escherichia coli; test: Broth dilution minimum inhibitory concentration, Escherichia coli; type: cell-based
Procedure: as §3
(§6) To test the breadth of the microbiocidal spectrum of didecyl dimethyl phosphonium chloride, minimum inhibitory concentrations (MIC's) were determined against several additional organisms in broth dilution tests with the following results: […]

[9] = system: Candida albicans; test: Broth dilution minimum inhibitory concentration, Candida albicans; type: cell-based
Procedure: as §3, §6

[10] = system: Salmonella typhosa; test: Broth dilution minimum inhibitory concentration, Salmonella typhosa; type: cell-based; settings: Salmonella enterica
Procedure: as §3, §6

[11] = system: mice; test: Acute oral toxicity in Swiss albino mice; type: in vivo
Procedure: (§7) The acute oral toxicity of didecyl dimethyl phosphonium chloride and dioctadecyl diethyl phosphonium chloride was determined using Swiss albino mice. The median lethal toxicities found were 350 and 2840 mg salt per body kg mice, respectively.

[12] = Acute oral toxicity in Swiss albino mice; type: in vivo; settings: mouse, in vivo, Swiss albino mice, read-out: median lethal toxicity, acute oral
Procedure: as §7

[13] = system: Staph. aureus; test: AOAC Germicidal and Sanitizer Test, Staph. aureus; type: cell-based; settings: Staphylococcus aureus
From the text: as §5

[14] = Solubility in toluene
[15] = system: bacterial, fungal and algal growth; test: Microbiocidal activity in general (broth dilution); type: cell-based
Procedure: as §3

Structure (SMILES): CCCCCCCCCCCCCCCCCC[P+](C)(C)C.[Cl-] [C18 H37 P^+ (CH3)3, octadecyl trimethyl phosphonium chloride, reference compound]
- Surface Tension of Water ([1]; 0.010% salt): 42 Dynes/cm
- Surface Tension of Water ([1]; 0.100% salt): 41 Dynes/cm
- Interfacial Tension of Water-Nujol ([2]; 0.010% salt): 12 Dynes/cm
- Interfacial Tension of Water-Nujol ([2]; 0.100% salt): 10 Dynes/cm

Structure (SMILES): CCCCCCCCCC[P+](C)(C)CCCCCCCCCC.[Cl-] [Example 3, Didecyl Dimethyl Phosphonium Chloride]
- killing at 25 ppm ([7]; 200 ppm hardness, read-out: Reduction of live Bacterial Organisms in water of 200 ppm Hardness): 99.9%
- killing at 25 ppm ([7]; distilled water, read-out: Reduction of live Bacterial Organisms in Distilled Water): 100%
- MIC ([3]; 336 h): 0.25 µg/mL
- minimum inhibitory concentration against Aspergillus niger relative to didodecyl dimethyl phosphonium chloride ([3]; didecyl versus didodecyl compound (Seq. No. 4)): three hundred times smaller
- MIC [8]: 0.5 µg/mL
- MIC [9]: 0.25 µg/mL
- MIC [10]: 8 µg/mL
- activity against Pseudomonas aeruginosa [4]: Particularly outstanding
- MIC ([4]; 24 h): 16 µg/mL
- level of oral toxicity [11]: medium level of oral toxicity
- LD50 [12]: 350 mg/kg
- MIC ([5]; 336 h): 0.125 µg/mL
- killing at 25 ppm ([13]; read-out: Reduction of live Bacterial Organisms in Distilled Water): 100%
- killing at 25 ppm ([13]; read-out: Reduction of live Bacterial Organisms in water of 200 ppm Hardness): 100%
- MIC ([6]; 48 h): 0.5 µg/mL

Structure (SMILES): CCCCCCCCCCCC[P+](CC)(CCCCCCCCCCCC)CC(C)C.[Cl-] [Example 6, Didodecyl Isobutyl Ethyl Phosphonium Chloride]
- MIC ([3]; 336 h, after 14 days): 1 µg/mL
- activity against Pseudomonas aeruginosa [4]: Particularly outstanding
- MIC ([4]; 24 h, after 1 day): 16 µg/mL
- MIC ([5]; 336 h, after 14 days): 0.5 µg/mL
- MIC ([6]; 24 h, after 1 day): 0.5 µg/mL
- solubility in toluene [14]: highly soluble in toluene

Structure (SMILES): CCCCCCCCCCCCCCCC[P+](CC)(CCCCCCCCCCCCCCCC)CC(C)C.[Cl-] [Example 7, Dihexadecyl Isobutyl Ethyl Phosphonium Chloride]
- MIC ([3]; 336 h, after 14 days): 0.5 µg/mL
- activity against Pseudomonas aeruginosa [4]: Particularly outstanding
- MIC ([4]; 24 h, after 1 day): 16 µg/mL
- MIC ([5]; 336 h, after 14 days): 0.5 µg/mL
- MIC ([6]; 24 h, after 1 day): 0.5 µg/mL

Structure (SMILES): CCCCCCCCCCCCCCCCCC[P+](CC)(CC)CCCCCCCCCCCCCCCCCC.[Cl-] [Example 8, Dioctadecyl Diethyl Phosphonium Chloride]
- MIC ([3]; 336 h): 15 µg/mL
- microbiocidal activity [15]: not highly active microbiocidally
- MIC ([4]; 48 h): 500 µg/mL
- level of oral toxicity [11]: essential lack of oral toxicity
- LD50 [12]: 2840 mg/kg
- MIC ([5]; 336 h): 7.5 µg/mL
- MIC ([6]; 48 h): 15 µg/mL

More lines, main results first:

- MIC ([3]; 168 h, after 7 days): 75 µg/mL
- Surface Tension of Water ([1]; 0.001% salt): 33 Dynes/cm
- Surface Tension of Water ([1]; 0.0025% salt): 33 Dynes/cm
- Surface Tension of Water ([1]; 0.005% salt): 32 Dynes/cm
- Surface Tension of Water ([1]; 0.0075% salt): 31 Dynes/cm
- Surface Tension of Water ([1]; 0.010% salt): 31 Dynes/cm
- Surface Tension of Water ([1]; 0.100% salt): 29 Dynes/cm
- MIC ([4]; 24 h, after 1 day): 2500 µg/mL
- Interfacial Tension of Water-Nujol ([2]; 0.001% salt): 3 Dynes/cm
- Interfacial Tension of Water-Nujol ([2]; 0.0025% salt): 3 Dynes/cm
- Interfacial Tension of Water-Nujol ([2]; 0.005% salt): 3 Dynes/cm
- Interfacial Tension of Water-Nujol ([2]; 0.0075% salt): 3 Dynes/cm
- Interfacial Tension of Water-Nujol ([2]; 0.010% salt): 3 Dynes/cm
- Interfacial Tension of Water-Nujol ([2]; 0.100% salt): 2 Dynes/cm
- MIC ([5]; 168 h, after 7 days): 8 µg/mL
- MIC ([6]; 24 h, after 1 day): 1 µg/mL
Structure (SMILES): CCCCCCCCCCCC[P+](C)(C)CCCCCCCCCCCC.[Cl-] [Example 1, Didodecyl Dimethyl Phosphonium Chloride]
- activity against Pseudomonas aeruginosa [4]: no significant activity

- MIC ([3]; 336 h, after 14 days): 7.5 µg/mL
- MIC ([4]; 24 h, after 1 day): 250 µg/mL
- MIC ([5]; 336 h, after 14 days): 4 µg/mL
- MIC ([6]; 48 h, after 2 days): 0.5 µg/mL
Structure (SMILES): CCCCCCCC[P+](C)(C)CCCCCCCC.[Cl-] [Example 4, Dioctyl Dimethyl Phosphonium Chloride]

- MIC ([4]; 48 h, after 2 days): 250 µg/mL
Structure (SMILES): CCCCCCCC[P+](C)(CC)CCCCCCCC.[Cl-] [Example 5, Dioctyl Ethyl Methyl Phosphonium Chloride]
